#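 48-hour exposure; five concentrations; linearly interpolated endpoints. At the GI50, growth is halved. TGI is the concentration that stops growth completely.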
# Tested on: SNB-78 CNS
# Assay: NCI tumour cell line growth inhibition, 48 h
SMILES,TGI,GI50
Cc1[nH]c(=O)[nH]c(=O)c1/C=C/C(=O)NC(CO)CC(C)C (stereo not given),> 375 µM,–
N=C1C(=N)c2ccccc2-c2ccccc21.[Cl-].[Ru+2].c1cnc2c(c1)ccc1cccnc12.c1cnc2c(c1)ccc1cccnc12,> 100 µM,39.2 µM
CC(=O)OC1C=C(C=O)C(O)(C=O)C2(C)CCCC(C)(C)C12 (stereo not given),5.44 µM,–
CC(C)=CCc1c(O)cc(O)c2c1OC(c1ccc(O)cc1)C(O)C2=O (stereo not given),95.3 µM,–
NCC(Cl)C(O)c1cnc(N)[nH]1 (stereo not given),> 90.9 µM,–

# Tested on: M19-MEL melanoma
# Assay: NCI tumour cell line growth inhibition, 48 h
SMILES,TGI,GI50
Cc1[nH]c(=O)[nH]c(=O)c1/C=C/C(=O)NC(CO)CC(C)C (stereo not given),> 375 µM,–
N=C1C(=N)c2ccccc2-c2ccccc21.[Cl-].[Ru+2].c1cnc2c(c1)ccc1cccnc12.c1cnc2c(c1)ccc1cccnc12,> 100 µM,24.6 µM
CC(=O)OC1C=C(C=O)C(O)(C=O)C2(C)CCCC(C)(C)C12 (stereo not given),3.36 µM,–
CC(C)=CCc1c(O)cc(O)c2c1OC(c1ccc(O)cc1)C(O)C2=O (stereo not given),> 100 µM,–
NCC(Cl)C(O)c1cnc(N)[nH]1 (stereo not given),29.8 µM,–

# Tested on: P388 leukemia
# Assay: NCI tumour cell line growth inhibition, 48 h
row,SMILES,TGI
1,Cc1[nH]c(=O)[nH]c(=O)c1/C=C/C(=O)NC(CO)CC(C)C (stereo not given),> 375 µM
2,CC(=O)OC1C=C(C=O)C(O)(C=O)C2(C)CCCC(C)(C)C12 (stereo not given),0.525 µM
3,NCC(Cl)C(O)c1cnc(N)[nH]1 (stereo not given),1.06 µM

# Tested on: MDA-N
# Assay: NCI tumour cell line growth inhibition, 48 h
row,SMILES,TGI
1,CCOc1cccc(C=Nc2ccccc2SSc2ccccc2N=Cc2cccc(OCC)c2O)c1O,37.7 µM
2,COc1cc(C(=O)NNC(=O)c2cc(Br)ccc2NC(=O)c2cccs2)cc(OC)c1OC,74.9 µM
3,C[N+]12CCCCC1C(COc1cccc3cccnc13)CCC2 (stereo not given),> 100 µM
4,NC(=O)NC1NC(=O)NC1=O (stereo not given),> 100 µM
5,CC[C@@]1(O)C(=O)OCc2c1cc1n(c2=O)Cc2c-1nc1ccccc1c2/C=N\NC(=O)C[n+]1ccccc1,> 100 µM
6,CCN(CCCl)c1cc(CN(C)C)cc(NC(=O)c2ccc(C(=O)Nc3cc(CN(C)C)cc(N(CC)CCCl)c3)cc2)c1,0.594 µM
7,COc1ccccc1C[C@@H]1OC2(C=CC(=O)CC2SC(=O)c2ccccc2)O[C@H]1Cc1ccccc1OC (stereo not given in full),6.16 µM
8,COc1ccc(CC2Cc3ccccc3CCN2)cc1OC (stereo not given),> 50 µM
9,C=CCN1C(=O)/C(=C/c2ccc(Cl)cc2)N=C1SC/C=C/C,> 100 µM
10,CC12Nc3c(Cl)cc(Cl)cc3N1C(=O)c1ccccc12 (stereo not given),> 100 µM
11,OCC1OC(NC(=S)NCCC(F)(F)C(F)(F)C(F)(F)C(F)(F)C(F)(F)C(F)(F)F)C(O)C(O)C1O (stereo not given),> 100 µM
12,COC(=O)c1ccccc1/C=C1\Cc2c(ccc3c2CCC3)C1=O,> 100 µM
13,Nc1cc(Cl)cc2cc(Cl)cnc12,> 100 µM
14,CSC1=N/C(=C\c2ccc(C)cc2)C(=O)N1,> 100 µM
15,O=S(=O)(O)CCSSCCS(=O)(=O)O,> 1000 µM
16,COC(=O)/C(C)=N/NC(=S)SC,> 100 µM
17,CC(=O)OCC1OC(NC(=S)Nn2c(=O)[nH]c3ccccc3c2=O)C(OC(C)=O)C(OC(C)=O)C1OC(C)=O (stereo not given),> 100 µM
18,Cc1ccc2c(c1)C(=O)C1(C2)Cc2c(C)cccc2C1=O (stereo not given),> 100 µM
19,CC1=NN(c2cccc(S(=O)(=O)O)c2)C2(C1)C(Cl)C(=O)N2c1nc2ccccc2s1 (stereo not given),27.7 µM
20,C[C@]12CC[C@H]3[C@@H](CCC4=CC(=O)CC[C@@H]43)[C@@H]1CC[C@]2(O)C(N)=O,> 100 µM
21,O=c1[nH]c(=O)n(C/C=C/CO)nc1Br,> 100 µM
22,O=C1CC(Br)c2c(Br)sc(Br)c21 (stereo not given),28.8 µM
23,COC(=O)C1C2OC(C)(C)OC2CN1S(=O)(=O)c1ccc(C)cc1 (stereo not given),> 100 µM
24,CC12CCCC(C(=O)O)(C1)[C@H](C(C)(C)C(=O)O)CC2 (stereo not given in full),> 100 µM

row,SMILES,TGI
1,COc1ccc(CNc2ccn(C3OC(CO)C(O)C3O)c(=O)n2)cc1 (stereo not given),> 100 µM
2,O=C1CSC(c2ccccc2)N1c1nc2cc3sc(N4C(=O)CSC4c4ccccc4)nc3cc2s1 (stereo not given),> 100 µM
3,Cc1sc2nc(N(C)C)oc(=O)c2c1C,> 100 µM
4,NCc1ccc(-c2ccc(CN)s2)s1,> 100 µM
5,NC(CSS(=O)(=O)O)=NC1CC2CCC1C2 (stereo not given),> 100 µM
6,CC(C)OC(=O)c1ccc(NCC2=CC(=O)C=CC2=O)cc1,29.2 µM
7,COc1cccc(Nc2nc(C)c([N+](=O)[O-])c(Nc3cccc(OC)c3)n2)c1,> 100 µM
8,O=C(O)c1cccc(Nc2c(C(=O)O)cccc2[N+](=O)[O-])c1,> 100 µM
9,CC(C)C[C@H]1[C@@H](OCc2ccccc2)COS(=O)(=O)N1[C@H](C)c1ccccc1,> 100 µM
10,CN1CCC23c4c5ccc(Oc6nnnn6-c6ccccc6)c4OC2c2[nH]c4ccccc4c2CC3(O)C1C5 (stereo not given),3.26 µM
11,COC(=O)c1ccccc1/C=C1\Cc2c(C)c3c(c(C)c2C1=O)CCC3,> 100 µM
12,O=c1[nH]c2cccc([N+](=O)[O-])c2c(=O)n1-c1ccc(Cl)cc1,26.6 µM
13,O=C1c2ccccc2-c2nnc(-c3ccc([N+](=O)[O-])cc3)cc21,> 10 µM
14,C1C2CC3CC1CC(c1nn4c(C56CC7CC(CC(C7)C5)C6)nnc4s1)(C2)C3,> 100 µM
15,Cn1c(-c2cccs2)cc(-c2cccs2)c1-c1cccs1,> 100 µM
16,C[C@]12CCC(O)CC1=CC[C@@H]1[C@@H]2CC[C@]2(C)C(O)[C@H](n3ccnc3)C[C@@H]12 (stereo not given in full),> 100 µM
17,CCOC(=O)CC[C@H](N)C(=O)N[C@@H](Cc1ccc(N(CCCl)CCCl)cc1)C(=O)OCC,2.57 µM
18,CC(C)CCCC(C)[C@H]1CC[C@H]2n3c(nnc3-c3ccccc3)CCC[C@]12C (stereo not given in full),31 µM
19,CCCCCCCCCCCCCCCCP(=O)(O)OCC(N)C(=O)O (stereo not given),> 100 µM
20,O=C(CSc1ncccn1)N/N=C/c1ccccc1OCc1ccccc1,60.9 µM
21,C=CC(C)(C)n1cc(C2=C3OC(=O)C(c4cn(C(C)(C)C=C)c5ccccc45)=C3OC2=O)c2ccccc21,> 100 µM
22,CN1CCCC2C(c3ccccc3)C(C3=NCCCC3)C(c3ccccc3)CC21 (stereo not given),41.4 µM
23,CCOC(=O)/C(C#N)=C/Nc1c(C)n(C)n(-c2ccccc2)c1=O,> 100 µM

# Tested on: HL-60(TB) leukemia
# Assay: NCI tumour cell line growth inhibition, 48 h
row,SMILES,TGI
1,CCOc1cccc(C=Nc2ccccc2SSc2ccccc2N=Cc2cccc(OCC)c2O)c1O,14.8 µM
2,COc1cc(C(=O)NNC(=O)c2cc(Br)ccc2NC(=O)c2cccs2)cc(OC)c1OC,93.6 µM
3,C[N+]12CCCCC1C(COc1cccc3cccnc13)CCC2 (stereo not given),> 100 µM
4,NC(=O)NC1NC(=O)NC1=O (stereo not given),> 100 µM
5,CC[C@@]1(O)C(=O)OCc2c1cc1n(c2=O)Cc2c-1nc1ccccc1c2/C=N\NC(=O)C[n+]1ccccc1,> 34.4 µM
6,Cc1[nH]c(=O)[nH]c(=O)c1/C=C/C(=O)NC(CO)CC(C)C (stereo not given),> 375 µM
7,CCN(CCCl)c1cc(CN(C)C)cc(NC(=O)c2ccc(C(=O)Nc3cc(CN(C)C)cc(N(CC)CCCl)c3)cc2)c1,1.09 µM
8,COc1ccccc1C[C@@H]1OC2(C=CC(=O)CC2SC(=O)c2ccccc2)O[C@H]1Cc1ccccc1OC (stereo not given in full),5.64 µM
9,COc1ccc(CC2Cc3ccccc3CCN2)cc1OC (stereo not given),> 50 µM
10,C=CCN1C(=O)/C(=C/c2ccc(Cl)cc2)N=C1SC/C=C/C,57.5 µM
11,CC12Nc3c(Cl)cc(Cl)cc3N1C(=O)c1ccccc12 (stereo not given),> 100 µM
12,OCC1OC(NC(=S)NCCC(F)(F)C(F)(F)C(F)(F)C(F)(F)C(F)(F)C(F)(F)F)C(O)C(O)C1O (stereo not given),> 100 µM
13,COC(=O)c1ccccc1/C=C1\Cc2c(ccc3c2CCC3)C1=O,> 100 µM
